# Assay results reported in US8546394B2, “Substituted [1,2,4]triazolo[4,3-A]pyrazine 11-beta-hydroxysteroid dehydrogenase inhibitors” (Bristol-Myers Squibb Company, priority 2007, dated 2013).
# pIC50: −log10 of the molar value. Structures can show the parent of a compound that is named as a salt.
# Target: T1, recombinant human 11beta-HSD1 (Homo sapiens, UniProt P28845)
# T1 construct: Full length recombinant human 11β-HSD1 cDNAs and the cDNA encoding human 11β-HSD2 were expressed stably in HEK 293 EBNA cells; made in house
# Experiment: 11β-HSD1 SPA enzyme assay (in vitro inhibition, human microsomes, 3H-cortisone)
# Format: biochemical
# Details: microsomes from HEK 293 EBNA cells, 40 nM 3H-cortisone, 4 hrs room temperature
# Protocol: The in vitro inhibition of recombinant human 11beta-HSD1 was determined as follows.
# [^3H]-Cortisone with a specific radioactivity of 50 Ci/mmol (ART 743, Lot: 050906) was from American Radiolabeled Chemicals, Inc. (St Louis, Mo.); monoclonal ab to Cortisol (P01-9294M-P, Lot: L-28) was from East Coast Bio., (North Berwick, Me.); Protein A-yttrium silicate, type-1, SPA bead NJ® (RPN-143) was from Amersham LifeSciences, (Piscataway, N.J.); 384 well-Optiplate384® (#6007299) was from PerkinElmer (Boston, Mass.); DPBS, pH 7.4 (14040) is from GIBCO, (Grand Island, N.Y.); carbenoxolone (C4790) is from Sigma, (St Louis, Mo.).
# Full length recombinant human 11β-HSD1 cDNAs and the cDNA encoding human 11β-HSD2 were expressed stably in HEK 293 EBNA cells. Cells were grown in DMEM (high glucose) containing MEM non-essential amino acids, L-glutamine, hygromycin B (200 μg/ml), and G-418 (200 μg/ml) in the presence of 10% FBS.
# Human 11β-HSD1 transfected HEK 293 EBNA cells were grown to 80% confluency and the cell pellet was quick frozen and stored at −80° C. before purification. Cell paste, 40 g from −80° C. storage, was thawed in water and then 100 ml of homogenization buffer H (0.01 M sodium phosphate pH 6.5 containing 0.25 M sucrose and protease inhibitor cocktail (Roche #1836145 1 tablet per 50 ml) were added to completely thaw the paste. The cell paste suspension was homogenized using a Polytron for 20 seconds to create a homogeneous mixture. Additional buffer H was added to a volume of 300 ml and cells were broken open using a N2-bomb (at 4° C.) in two batches by treating at 500 psi. The extract was centrifuged at 750×g for 30 min. The supernatant was centrifuged at 20,000×g for 30 min. The supernatant was further centrifuged at 105,000×g for 60 min. The 105,000×g pellet was resuspended in buffer H and centrifuged at 105,000×g for 60 min. The microsome pellet was scraped from the bottom of tube and resuspended in 0.01M phosphate buffer, pH 6.5 containing protease inhibitors (Roche #1836145, 1 tablet per 50 ml). Aliquots were stored at −80° C. until needed. The protein concentration was measured by the BioRad method using BSA standard.
# Compounds were dissolved in DMSO to obtain 10 mM stock concentrations. From the 10 mM stock, the compounds were diluted in DMSO to achieve the concentrations.
# 11β-HSD1 SPA Enzyme Assay
# 11β-HSD1 was assayed by Scintillation Proximity assay in a 384-well Perkin Elmer white plate. The dose response of the compounds was determined using 11 half-log dilutions of compound in DMSO in duplicate. To each well, 0.5 μl of compound dilution in DMSO were added. 15 μl of assay buffer (for blanks) or 15 μl of human microsomes in assay buffer were added next and the plates were incubated for 10 min at room temperature. The final microsomal protein concentration was 1.1 μg/assay. Duplicates were in the same plate one row below the other. 10 μl of ^3H-cortisone (final concentration 40 nM) was added to each well and the plate was spun down to mix and bring down the contents to the bottom of the wells. The plates were incubated at room temperature with gentle shaking for 4 hrs. The reaction was stopped with addition of 10 μl of 10 mM carbenoxolone. Then, 0.5 mg of yttrium silicate SPA beads coupled to anti-cortisol antibody in 20 μl were added to all the wells of plate, which were spun down once more and incubated at room temperature overnight. The plate was read in a TopCount® (1 min/well). Data were uploaded automatically to Tool Set, a Lead Evaluation informatics program for data capture and calculation. Graphs were generated with the Curve Master program.
# T1 sequence (P28845 whole entry): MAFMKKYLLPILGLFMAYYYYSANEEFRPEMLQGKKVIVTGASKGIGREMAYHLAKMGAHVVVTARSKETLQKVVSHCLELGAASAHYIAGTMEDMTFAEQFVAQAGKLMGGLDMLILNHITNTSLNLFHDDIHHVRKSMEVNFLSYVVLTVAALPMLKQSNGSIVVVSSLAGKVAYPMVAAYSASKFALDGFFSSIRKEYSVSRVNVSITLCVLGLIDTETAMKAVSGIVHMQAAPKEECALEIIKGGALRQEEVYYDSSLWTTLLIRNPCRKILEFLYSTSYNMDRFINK
row,Structure (SMILES),pIC50
1,Clc1ccc(C2(c3nnc4c(C5CC5)nccn34)CCC2)c(Cl)c1 [Example 6],9.22
2,OC12CCC(c3nnc4c(Oc5ccccc5Cl)nccn34)(CC1)C2 [Example 27],6.47
3,"Clc1ccc(C2(c3nnc4c5sccc5ncn34)CC2)cc1 [Example 28, 3-(1-(4-Chlorophenyl)cyclopropyl)thieno[2,3-e][1,2,4]triazolo[4,3-c]pyrimidine]",7.07
4,CC(C)(Oc1ccccc1)c1nnc2c(Cl)nccn12 [Example 16],5.22
5,"CC(C)(c1ccc(Cl)cc1)c1nnc2c(C3CC3)nccn12 [Example 1, 3-(2-(4-Chlorophenyl)propan-2-yl)-8-cyclopropyl-[1,2,4]triazolo[4,3-a]pyrazine]",8.74
6,"Clc1ccc(C2(c3nnc4nc(C5CC5)ccn34)CC2)cc1 [Example 3, 3-(1-(4-Chlorophenyl)cyclopropyl)-7-cyclopropyl-[1,2,4]triazolo[4,3-a]pyrimidine]",6.34
7,CC(C)(Oc1ccc(Cl)cc1Cl)c1nnc2c(C3CC3)nccn12 [Example 38],8.74

# The next lines start with the values.
row,pIC50,Structure (SMILES)
1,8.92,"CC(C)(O)c1ccnn2c(C3(c4ccc(Cl)cc4)CC3)nnc12 [Example 36, 2-(3-(1-(4-Chlorophenyl)cyclopropyl)-[1,2,4]-triazolo[4,3-b]pyridazin-8-yl)propan-2-ol]"
2,8.89,C=CCCc1nccn2c(C3(c4ccc(Cl)cc4)CC3)nnc12 [Example 25]
3,9.30,"FC(F)(F)Oc1ccccc1Oc1nccn2c(C3(c4ccc(Cl)cc4)CC3)nnc12 [Example 4, 8-(2-(Trifluoromethoxy)phenoxy)-3-(1-(4-chlorophenyl)cyclopropyl)-[1,2,4]triazolo[4,3-a]pyrazine]"
4,7.92,"Clc1ccc(C2(c3nnc4c5c(cnn34)CCCC5)CC2)cc1 [Example 29, 3-(1-(4-Chlorophenyl)cyclopropyl)-7,8,9,10-tetrahydro-[1,2,4]-triazolo[3,4-a]phthalazine TFA Salt]"
5,5.29,CC(C)(c1ccc(F)cc1)c1nnc2c(Cl)nccn12 [Example 41]
6,8.10,"CC(C)(O)c1nccn2c(C3(c4ccc(Cl)cc4)CC3)nnc12 [Example 35, 2-(3-(1-(4-Chlorophenyl)cyclopropyl)-[1,2,4]triazolo[4,3-a]pyrazin-8-yl)propan-2-ol TFA salt]"

# Tested on: mildly overweight individuals with type 2 diabetes
# Experiment: not given
# Details: seven day study, versus placebo; cited from earlier work
row,Structure (SMILES),hepatic glucose production
1,CC1(C)[C@@H](OC(=O)CCC(=O)O)CC[C@]2(C)[C@H]3C(=O)C=C4[C@@H]5C[C@@](C)(C(=O)O)CC[C@]5(C)CC[C@@]4(C)[C@]3(C)CC[C@@H]12 [carbenoxolone],decrease in hepatic glucose production
